# Reference: ChEMBL document CHEMBL5131568, “Discovery of an Oral, Rule of 5 Compliant, Interleukin 17A Protein-Protein Interaction Modulator for the Potential Treatment of Psoriasis and Other Inflammatory Diseases” (J Med Chem, 2022)
# Tests used:
# [1] = Inhibition of IL-8 release in non-glycosylated IL-17A/TNFalpha-stimulated human HEKa incubated for 72 hrs under serum free medium by AlphaLISA; format: functional, cell-based
# [2] = Inhibition of IL-8 release in glycosylated IL-17A/TNFalpha-stimulated human HEKa incubated for 72 hrs under serum free medium by AlphaLISA; format: functional, cell-based
# [3] = Metabolic stability in human liver microsomes assessed as apparent clearance at 0.5 uM measured upto 40 mins in presence of NADPH by LCMS/MS analysis; format: ADME, Microsome; details: read-out: CLH
# [4] = Solubility in phosphate buffer at pH 7.4 measured after 24 hrs by HPLC-UV analysis; format: physicochemical
# [5] = Solubility in phosphate buffer at pH 6.5 measured after 24 hrs by HPLC-UV analysis; format: physicochemical
# [6] = Solubility in phosphate buffer at pH 2 measured after 24 hrs by HPLC-UV analysis; format: physicochemical
# [7] = Protein binding in human plasma assessed as unbound fraction at 1 uM by LCMS/MS analysis; format: ADME, cell-free
# [8] = Apparent permeability of compound in human Caco2 cells from apical to basal; format: ADME, cell-based; details: Caco-2
# [9] = Apparent permeability of compound in human Caco2 cells from basal to apical; format: ADME, cell-based; details: Caco-2
# [10] = Clearance in Sprague-Dawley rat at 0.1 mg/kg, iv measured upto 24 hrs by LCMS/MS analysis; format: ADME, organism-based; details: in vivo
# [11] = Half life in Sprague-Dawley rat at 0.1 mg/kg, iv measured upto 24 hrs by LCMS/MS analysis; format: ADME, organism-based; details: in vivo
# [12] = Volume of distribution at steady state in Sprague-Dawley rat at 0.1 mg/kg, iv measured upto 24 hrs by LCMS/MS analysis; format: ADME, organism-based; details: in vivo, read-out: Vdss
# [13] = Oral bioavailability in Sprague-Dawley rat at 2.6 mg/kg measured upto 24 hrs by LCMS/MS analysis; format: ADME, organism-based; details: in vivo
# [14] = Inhibition of IL-8 release in non-glycosylated IL-17A/TNFalpha-stimulated human HEKa cells at 0.6 uM incubated for 72 hrs under serum free medium by AlphaLISA; format: functional
# [15] = target: Voltage-gated inwardly rectifying potassium channel KCNH2 (Homo sapiens, UniProt Q12809); assay: Inhibition of human ERG; format: toxicity
# Interleukin-17A = target: T1, Interleukin-17A (Homo sapiens, UniProt Q16552); assay: Binding affinity to human IL-17A assessed as thermal stability by measuring increase in unfolding temperature by differential scanning fluorimetry
# T1 sequence (Q16552 whole entry): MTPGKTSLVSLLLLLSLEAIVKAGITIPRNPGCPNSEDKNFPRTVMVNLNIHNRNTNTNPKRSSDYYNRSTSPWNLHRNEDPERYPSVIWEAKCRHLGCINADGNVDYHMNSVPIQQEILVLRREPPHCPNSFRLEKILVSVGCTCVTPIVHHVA
# [16] = Inhibition of IL-8 release in non-glycosylated IL-17A/TNFalpha-stimulated human HEKa cells at 6 uM incubated for 72 hrs under serum free medium by AlphaLISA; format: functional
# [17] = Inhibition of IL-8 release in glycosylated IL-17A/TNFalpha-stimulated human HEKa cells at 10 uM incubated for 72 hrs under serum free medium by AlphaLISA; format: functional
# Voltage-gated inwardly rectifying potassium channel KCNH2, sequence (Q12809 whole entry): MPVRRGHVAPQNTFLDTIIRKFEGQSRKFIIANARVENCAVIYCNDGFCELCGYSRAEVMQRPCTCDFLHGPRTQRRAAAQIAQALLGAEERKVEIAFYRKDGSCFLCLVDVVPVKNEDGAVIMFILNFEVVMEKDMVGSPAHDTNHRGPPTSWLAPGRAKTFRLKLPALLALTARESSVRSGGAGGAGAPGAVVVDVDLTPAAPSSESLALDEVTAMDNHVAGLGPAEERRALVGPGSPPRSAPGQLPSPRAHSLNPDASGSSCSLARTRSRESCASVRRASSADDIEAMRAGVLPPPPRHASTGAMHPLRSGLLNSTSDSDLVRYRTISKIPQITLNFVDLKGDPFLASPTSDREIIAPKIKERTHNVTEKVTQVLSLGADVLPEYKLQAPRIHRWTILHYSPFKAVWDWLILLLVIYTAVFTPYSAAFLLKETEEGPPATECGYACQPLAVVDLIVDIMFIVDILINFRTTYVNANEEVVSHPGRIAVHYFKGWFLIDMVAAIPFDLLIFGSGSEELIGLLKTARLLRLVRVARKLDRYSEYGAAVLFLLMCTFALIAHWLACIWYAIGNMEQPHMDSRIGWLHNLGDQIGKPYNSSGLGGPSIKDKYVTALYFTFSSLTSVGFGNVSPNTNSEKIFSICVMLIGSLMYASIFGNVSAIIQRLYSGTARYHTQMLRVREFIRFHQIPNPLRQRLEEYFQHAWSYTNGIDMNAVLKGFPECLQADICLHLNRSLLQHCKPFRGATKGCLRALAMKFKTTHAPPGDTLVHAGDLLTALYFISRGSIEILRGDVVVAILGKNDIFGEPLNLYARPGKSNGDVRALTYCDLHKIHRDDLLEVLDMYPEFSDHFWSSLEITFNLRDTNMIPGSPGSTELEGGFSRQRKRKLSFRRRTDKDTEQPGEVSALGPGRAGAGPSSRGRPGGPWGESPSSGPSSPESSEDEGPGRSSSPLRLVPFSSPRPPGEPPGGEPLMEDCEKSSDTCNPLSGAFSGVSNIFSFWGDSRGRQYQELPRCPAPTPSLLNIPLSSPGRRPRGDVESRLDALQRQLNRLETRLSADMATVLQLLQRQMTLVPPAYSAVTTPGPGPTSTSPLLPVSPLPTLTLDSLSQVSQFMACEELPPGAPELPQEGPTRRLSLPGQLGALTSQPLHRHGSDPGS
Compound,EC50 [1] [nM],CLint scaled at 0.5 µM [3] [mL/min/kg],other results
O=C1CNC(=O)[C@@H](Cc2ccc(NC(=O)[C@H](Cc3ccccc3Cl)NC(=O)Cc3ccccc3)cc2)NC(=O)CC2(CCCC2)CC(=O)NCCCCCN1,151,> 200,EC50 [2]: 1920 nM
Cn1cncc1-c1ccc(NC(=O)[C@@H](NC(=O)c2ccnn2C)C(c2ccccc2)c2ccccc2)cc1,–,21,EC50 [2]: 947 nM
Cc1n[nH]c(C)c1-c1ccc(NC(=O)[C@H](CC2CCCCC2)NC(=O)c2ccnn2C)cc1,935,57,–
Cc1n[nH]c(C)c1-c1ccc(NC(=O)[C@@H](NC(=O)c2ccnn2C)C(C2CC2)C2CC2)cc1,53,< 8,–
Cc1n[nH]c(C)c1-c1ccc(NC(=O)[C@H](Cc2ccccc2Cl)NC(=O)c2ccnn2C)cc1,1100,24,–
Cc1n[nH]c(C)c1-c1ccc(NC(=O)[C@@H](NC(=O)c2ccnn2C)[C@H]2CC[C@H](C)CC2)cc1,50,< 8,–
Cc1n[nH]c(C)c1-c1ccc(NC(=O)[C@@H](NC(=O)c2ccnn2C)C(c2ccccc2)c2ccccc2)cc1,–,< 8,solubility at 24 h [4]: < 1 µg/mL; solubility at 24 h [5]: < 1 µg/mL; solubility at 24 h [6]: 25 µg/mL; EC50 [2]: 117 nM; fraction unbound at 1 µM [7]: 0.0011; Papp A→B [8]: 16 ×10⁻⁶ cm/s; Papp B→A [9]: 21 ×10⁻⁶ cm/s; clearance [10]: 7 mL/min/kg; half-life [11]: 3.2 h; Vd [12]: 2 L/kg; bioavailability [13]: 26%
Cc1n[nH]c(C)c1-c1ccc(NC(=O)[C@@H](NC(=O)c2ccnn2C)c2ccccc2)cc1,–,< 8,inhibition at 0.6 µM [14]: 28%
CCn1nccc1C(=O)N[C@H](C(=O)Nc1ccc(-c2c(C)n[nH]c2C)cc1)C(C1CCC1)C1CCC1,5.5,44,–
Cc1n[nH]c(C)c1-c1ccc(NC(=O)[C@@H](NC(=O)c2ccnn2C)C2CCCCC2)cc1,208,< 8,–
CC(C)[C@H](NC(=O)COCCNC(=O)OC(C)(C)C)C(=O)N[C@@H](CC(=O)O)Cc1ccc(NC(=O)[C@H](Cc2ccccc2Cl)NC(=O)C(F)(F)c2ccccc2)cc1,575,33,–
Cc1[nH]ncc1-c1ccc(NC(=O)[C@@H](NC(=O)c2ccnn2C)C(c2ccccc2)c2ccccc2)cc1,–,< 8,EC50 [2]: 385 nM
CCn1nccc1C(=O)N[C@H](C(=O)Nc1ccc(-c2c(C)n[nH]c2C)cc1)C(C1CC1)C1CC1,26,< 8,–
Cn1nccc1C(=O)N[C@H](C(=O)Nc1ccc(-c2cn[nH]c2)cc1)C(c1ccccc1)c1ccccc1,–,< 8,EC50 [2]: 3380 nM
Cc1n[nH]c(C)c1-c1ccc(NC(=O)[C@@H](NC(=O)c2ccnn2C(C)C)C(C2CC2)C2CC2)cc1,15,< 8,solubility at 24 h [4]: < 1 µg/mL; solubility at 24 h [5]: < 1 µg/mL; solubility at 24 h [6]: 40 µg/mL; fraction unbound at 1 µM [7]: 0.017; Papp A→B [8]: 38 ×10⁻⁶ cm/s; Papp B→A [9]: 26 ×10⁻⁶ cm/s; clearance [10]: 7.4 mL/min/kg; half-life [11]: 3.7 h; Vd [12]: 2.6 L/kg; bioavailability [13]: 100%; IC50 [15]: > 30000 nM; Kd (Interleukin-17A): 32 nM
Cc1n[nH]c(C)c1-c1ccc(NC(=O)[C@H](Cc2ccccc2)NC(=O)c2ccnn2C)cc1,–,12,inhibition at 6 µM [16]: 37%
Cn1cnnc1-c1ccc(NC(=O)[C@@H](NC(=O)c2ccnn2C)C(c2ccccc2)c2ccccc2)cc1,–,< 8,inhibition at 10 µM [17]: 47%
Cc1n[nH]c(C)c1-c1ccc(NC(=O)[C@@H](NC(=O)c2ccnn2C)C(C2CCC2)C2CCC2)cc1,10,9,–
Cc1n[nH]c(C)c1-c1ccc(NC(=O)[C@@H](NC(=O)c2ccnn2C)C2CCCCCC2)cc1,36,105,–
CN(C)C(=O)c1ccc(NC(=O)[C@@H](NC(=O)c2ccnn2C)C(c2ccccc2)c2ccccc2)cc1,5610,< 8,inhibition at 10 µM [17]: 52%
Cc1n[nH]c(C)c1-c1ccc(NC(=O)C(NC(=O)c2ccnn2C)C2CCC3(CC2)CC3)cc1 (stereo not given),296,< 8,–
Cc1n[nH]c(C)c1-c1ccc(NC(=O)[C@@H](NC(=O)c2ccnn2C(C)C)C(C2CCC2)C2CCC2)cc1,4.5,52,–
Cc1ncn(C)c1-c1ccc(NC(=O)[C@@H](NC(=O)c2ccnn2C)C(c2ccccc2)c2ccccc2)cc1,–,94,EC50 [2]: 304 nM
